Data on 6 molecules can be found in patent US8633177B2, “Nitroxyl (HNO) releasing compounds and uses thereof in treating diseases” (The United States of America, as represented by the …, priority 2010, dated 2014).

Read-outs that look alike come from different tables or passages of the source.

Data set [1] in a line: NO quantified by chemiluminescence during hydrolysis. Type of data set: physicochemical. The following applies: neutral pH. The procedure:
In addition to HNO measurements as described above by reductive nitrosylation of metmyoglobin, NO was quantified by chemiluminescence assay, N2O by gas chromatography, and nitrite ion by the Griess assay.
Detection of HNO was also carried out using the chemiluminescence method in, 1 mM ferricyanide solution.

The subject of data set [2] is COX-2 mRNA. The experiment in a line: COX mRNA levels. The format is cell-based. The settings on record: Control 1.0. The text has this: PGE2 levels are a direct measure of COX-2 activity. […] Increased COX-2 expression in the presence of aspirin has been reported previously (Davies et al., Alimentary Pharm. & Ther. 11(6):1101-08 (1997))). Both DEA/NO and DEA/NO-aspirin seem to augment the effect of aspirin while IPA/NO and IPA/NO-aspirin nullifies the effect and brings it back to the control level (Table 3).

For data set [3], the system named is porcine liver esterase. As to the kind of experiment: Esterase-catalyzed hydrolysis followed by UV spectrophotometry. Type of data set: in vitro ADME. The following applies: pH 7.4. The procedure:
FIGS. 4A-C are graphs illustrating spontaneous hydrolysis (FIGS. 4A and 4B) and esterase-catalyzed hydrolysis (FIG. 4C) of 2 in an embodiment of the invention. In FIG. 4A, spectra were collected every 60 s (10-min intervals shown) after dissolving 2 in PBS (pH 7.4) at 37° C., and only loss of the parent compound was observed. In FIG. 4B, the pH was elevated to 12, and scans were collected every 0.5 s (through 2.5 s and 3.5, 5.5, 9.5, and 54.5 shown). In FIG. 4C, porcine liver esterase (20 μL in 3 mL) was added (pH 7.4), and spectra were collected every 10 s. Hydrolysis of 2 (λmax 236 nm) to 1 (λmax 250 nm) was complete within 40 s (0.067 s^−1) under these conditions. […] Elevation of the intensity near 200 nm indicated formation of autoxidation products such as nitrite. Deaeration inhibited this peak (data not shown).
(§1) The rate constants of decomposition were measured spectrophotometrically by monitoring the decrease in absorbance of peaks at ˜240-250 nm characteristic of the diazeniumdiolate functionality. The hydrolysis medium consisted of the metal chelator diethylenetriaminepentaacetic acid (DTPA, 50 μM) in calcium- and magnesium-free Dulbecco's phosphate-buffered saline (PBS, pH 7.4). UV-visible spectroscopy was performed with a Hewlett-Packard 8453 diode-array spectrophotometer equipped with Agilent 89090A thermostat set to 37° C. The spectrophotometer was blanked after warming the cuvette containing buffer at the appropriate pH in the instrument heat block for 5 min. For esterase-containing reactions, porcine liver esterase (20 μL; Sigma; suspension in 3.2 M (NH4)2SO4, pH 8) was added to the reaction buffer before blanking. Upon addition of IPA/NO (1) or AcOM-IPA/NO (2) (≦10 μL of stock), the cuvette was capped and inverted to mix. Spectra were collected at 0.5- to 60-s intervals for time periods of 2-120 min or until A∞<0.05. Kinetic analysis was performed by fitting the data to an exponential decay (A=ΔAe^−kt+A∞) using KaleidaGraph v.3.1.

A short description of data set [4]: Hydrolysis at pH 11 followed by NMR. Type of data set: physicochemical. The procedure:
Organic products of the hydrolysis of 1 and 2 were quantified by integrating their NMR spectra. For pH 7.4, 3.9 mM solutions in 0.1 M phosphate buffer were employed. For pH 11, 4.9 mM solutions of 1 and 2 in 50 mM sodium carbonate were studied. Samples were run on a Varian Inova 400 MHz NMR with a Dell Precision 390 workstation. The samples were run at 37° C. and water suppression was achieved by using the preset pulse sequence. Peaks were identified by comparison with authentic standards.

A short description of data set [5]: Spontaneous decomposition kinetics by UV spectrophotometry in PBS. The format is physicochemical. On the procedure:
as §1
To gain insight into the mechanistic origins of this unexpected finding, the pH/rate profiles of the diazeniumdiolates 1 and 2 were explored. As previously established and shown in FIG. 3A, hydrolysis of 1 slowed as the pH was increased from 3 to 10, with a small increase in rate thereafter. This was the opposite of the results with 2, whose hydrolysis rate was essentially first order in hydroxide ion concentration between pH 5 and 11 (FIG. 3B).

Data set [6] concerns ventricular myocytes. As to the kind of experiment: Sarcomere shortening in isolated ventricular myocytes. Type of data set: cell-based, C57BL/6 male mice. The settings on record: 3 μM. The procedure: A stock solution of 2 in DMSO was freshly prepared prior to each experiment and stored on ice protected from the light. Liberase blendzyme 3 was purchased from Roche Diagnostics (Mannheim) while CaCl2, DMSO, and glucose were purchased from Merck (Darmstadt). Calcium-free perfusion buffer contained 113 mM NaCl, 4.7 mM KCl, 0.6 mM KH2PO4, 0.6 mM Na2HPO4, 1.2 mM MgSO4, 12 mM NaHCO3, 10 mM KHCO3, 30 mM taurine, 5.5 mM glucose, 10 mM 2,3-butanedione monoxime, and 10 mM 4-(2-hydroxyethyl)-1-piperazineethanesulfonic acid (HEPES) at pH 7.4. Digestion buffer contained an additional 0.1 mg/mL of recombinant collagenases/proteases (Liberase blendzyme 3) and 12.5 μM CaCl2. IonOptix solution for the sarcomere shortening measurements contained 135 mM NaCl, 4.7 mM KCl, 0.6 mM KH2PO4, 0.6 mM Na2HPO4, 1.2 mM MgSO4, 1.25 mM CaCl2, 20 mM glucose, and 10 mM HEPES at pH 7.46.
C57BL/6 male mice (13-15 weeks) were used in the present study. Ventricular myocytes were isolated from wild type hearts using a modified protocol of O'Connell et al., (AfCS Research Reports, 1(5): 1-9 (2003)). […] After further centrifugation, ionOptix buffer was added on the pellet and sarcomere shortening was assessed on field stimulation (1 Hz with 4-ms duration, 10 V) using a video-based sarcomere length detection system (IonOptix Corporation) at room temperature.

The subject of data set [7] is MB-231 breast cancer cell lines. The experiment in a line: DAF assay of cell membrane penetration, MB-231. The settings on record: MB-231 cell line.
Procedure: (§2) Intracellular NO/HNO release from the derivatized NSAIDs was determined using 4-amino-5-methylamino-2′,7′-difluorofluoroescein diacetate (DAF-FM diacetate) as in Example 9.
The test system is the same in data set [8].
Procedure: as §2
The mark [9] stands for this setting: porcine liver esterase 20 μL in 3 mL.

With `CC(C)N[N+]([O-])=N[O-].[Na+]` [Compound 1, sodium 1-(N-isopropylamino)diazen-1-ium-1,2-diolate, reference compound], in data set [1], the “species produced on spontaneous hydrolysis” value is “produced both NO and HNO”. Moreover, the “COX-2 mRNA level relative to control” value in data set [2] worked out at 1.2. In addition, the “rate of decay of 1” value in data set [3] (FIG. 4C, esterase present) was found to be 0.0033 s⁻¹; in data set [5] (FIG. 3A, PBS with 50 μM DTPA, 37° C.) it was 0.0012 s⁻¹. Besides, the “hydrolysis at pH 11” value in data set [4] (pH 11) is recorded as “hydrolyzed slowly”. For the same molecule, in data set [5] (pH 11, more slowly than 2), the “hydrolysis rate relative to 2” value was found to be 100 fold.

Consider `CCN(CC)[N+]([O-])=N[O-].[Na+]` [DEA/NO, O^2-Sodium 1-(N,N-Diethylamino)diazen-1-ium-1,2-diolate, reference compound], for which the “COX-2 mRNA level relative to control” value in data set [2] was 6.0.

As to `CC(=O)OCO/N=[N+](\[O-])NC(C)C` [Compound 2, O^2-(acetoxymethyl)1-(isopropylamino)diazen-1-ium-1,2-diolate], in data set [6], the “change in sarcomere shortening relative to baseline, versus 1” value is recorded as “approximately 4 fold”. In addition, the “total amount of NO detected on hydrolysis” value in data set [1] (NO-specific chemiluminescence detector) is on record as “less than 1 % of theoretical yield”. In data set [3] (setting [9]), the “rate of hydrolysis of 2 to 1” value came to 0.067 s⁻¹ and the “time to complete hydrolysis of 2 to 1” value is reported as at most 40 s. In data set [4] (37° C., pH 11 carbonate buffer), the “time to complete dissociation” value is recorded as at most 5 min. Moreover, in data set [5] (physiological pH), the “hydrolysis rate relative to 1” value was “an order of magnitude slower”.

As to `CC(C)N[N+]([O-])=NOC(=O)c1cccnc1Nc1cccc(C(F)(F)F)c1` [IPA/NO-niflumic acid, O^2-(2-(3-(trifluoromethyl)phenylamino)nicotinate)-1-(N-isopropylamino)-diazen-1-ium-1,2-diolate], the cell membrane penetration result in data set [7] is given as “penetrated cell membranes”.

Regarding `CCN(CC)[N+]([O-])=NOCOC(=O)Cc1c(C)n(C(=O)c2ccc(Cl)cc2)c2ccc(OC)cc12` [DEA/NO-indomethacin, O^2-(methyl2-(1-(4-chlorobenzoyl)-5-methoxy-2-methyl-1H-indol-3-yl)acetate)-1-(N,N-Diethylamino)-diazen-1-ium-1,2-diolate], in data set [8], the cell membrane penetration result is on record as “penetrated cell membranes”.

Turning to `COc1ccc2c(c1)c(CC(=O)OCON=[N+]([O-])NC(C)C)c(C)n2C(=O)c1ccc(Cl)cc1` [IPA/NO-indomethacin, O^2-(methyl2-(1-(4-chlorobenzoyl)-5-methoxy-2-methyl-1H-indol-3-yl)acetate)-1-(N-isopropylamino)-diazen-1-ium-1,2-diolate], in data set [8], the cell membrane penetration result was “penetrated cell membranes”.
